Measured values from the NIST ThermoML archive (doi:10.1021/je300584m).

Tests used:
[1] = Molar enthalpy of transition or fusion; conditions: Crystal; DSC

O=C1c2ccccc2-c2ccccc21 [9(9H)-fluorenone]
vapor or sublimation pressure [kPa]
Conditions | Crystal | Liquid
312.19 K, Calculated from knudsen effusion weight loss | 8.9e-05 | –
314.21 K, Calculated from knudsen effusion weight loss | 0.000115 | –
316.11 K, Calculated from knudsen effusion weight loss | 0.000143 | –
318.18 K, Calculated from knudsen effusion weight loss | 0.00018 | –
320.2 K, Calculated from knudsen effusion weight loss | 0.000225 | –
322.11 K, Calculated from knudsen effusion weight loss | 0.000273 | –
324.19 K, Calculated from knudsen effusion weight loss | 0.000344 | –
326.19 K, Calculated from knudsen effusion weight loss | 0.00043 | –
326.88 K, Closed cell (Static) method | 0.00045 | –
327.85 K, Closed cell (Static) method | – | 0.0008
328.11 K, Calculated from knudsen effusion weight loss | 0.000528 | –
328.32 K, Closed cell (Static) method | 0.00053 | –
329.82 K, Closed cell (Static) method | – | 0.00095
329.83 K, Closed cell (Static) method | 0.00061 | –
330.18 K, Calculated from knudsen effusion weight loss | 0.000638 | –
331.3 K, Closed cell (Static) method | 0.00072 | –
331.79 K, Closed cell (Static) method | – | 0.00112
332.18 K, Calculated from knudsen effusion weight loss | 0.000796 | –
332.81 K, Closed cell (Static) method | 0.00085 | –
333.8 K, Closed cell (Static) method | – | 0.00133
334.1 K, Calculated from knudsen effusion weight loss | 0.000977 | –
334.29 K, Closed cell (Static) method | 0.00098 | –
335.78 K, Closed cell (Static) method | 0.00113 | 0.00159
337.25 K, Closed cell (Static) method | 0.00133 | –
337.74 K, Closed cell (Static) method | – | 0.00185
338.75 K, Closed cell (Static) method | 0.00153 | –
339.72 K, Closed cell (Static) method | – | 0.00217
340.21 K, Closed cell (Static) method | 0.00177 | –
341.69 K, Closed cell (Static) method | 0.00205 | –
341.76 K, Closed cell (Static) method | – | 0.00258
343.19 K, Closed cell (Static) method | 0.00235 | –
343.72 K, Closed cell (Static) method | – | 0.00299
344.68 K, Closed cell (Static) method | 0.00272 | –
345.66 K, Closed cell (Static) method | – | 0.00348
346.2 K, Closed cell (Static) method | 0.00311 | –
347.68 K, Closed cell (Static) method | 0.00355 | 0.00409
349.17 K, Closed cell (Static) method | 0.00409 | –
349.66 K, Closed cell (Static) method | – | 0.00468
350.65 K, Closed cell (Static) method | 0.00467 | –
351.63 K, Closed cell (Static) method | – | 0.00545
352.14 K, Closed cell (Static) method | 0.00544 | –
353.63 K, Closed cell (Static) method | – | 0.0063
355.58 K, Closed cell (Static) method | – | 0.00731
357.59 K, Closed cell (Static) method | – | 0.0084
359.82 K, Closed cell (Static) method | – | 0.00981
361.57 K, Closed cell (Static) method | – | 0.01112
361.59 K, Closed cell (Static) method | – | 0.01107
363.79 K, Closed cell (Static) method | – | 0.01285
365.52 K, Closed cell (Static) method | – | 0.01446
367.74 K, Closed cell (Static) method | – | 0.01661
369.53 K, Closed cell (Static) method | – | 0.01887
371.72 K, Closed cell (Static) method | – | 0.02159
373.53 K, Closed cell (Static) method | – | 0.02435
375.67 K, Closed cell (Static) method | – | 0.02768
377.47 K, Closed cell (Static) method | – | 0.03128
379.65 K, Closed cell (Static) method | – | 0.03529
381.4 K, Closed cell (Static) method | – | 0.03955
383.6 K, Closed cell (Static) method | – | 0.04451
385.47 K, Closed cell (Static) method | – | 0.05021
387.56 K, Closed cell (Static) method | – | 0.05645
391.51 K, Closed cell (Static) method | – | 0.07082
393.41 K, Closed cell (Static) method | – | 0.07755
395.41 K, Closed cell (Static) method | – | 0.08762
397.36 K, Closed cell (Static) method | – | 0.09675
399.35 K, Closed cell (Static) method | – | 0.1089
401.32 K, Closed cell (Static) method | – | 0.1202
403.3 K, Closed cell (Static) method | – | 0.1342
406.25 K, Closed cell (Static) method | – | 0.1558
407.26 K, Closed cell (Static) method | – | 0.1646
409.18 K, Closed cell (Static) method | – | 0.1808
411.21 K, Closed cell (Static) method | – | 0.2014
413.17 K, Closed cell (Static) method | – | 0.2206
415.17 K, Closed cell (Static) method | – | 0.244
417.11 K, Closed cell (Static) method | – | 0.2679
419.13 K, Closed cell (Static) method | – | 0.2948
421.06 K, Closed cell (Static) method | – | 0.3242
423.04 K, Closed cell (Static) method | – | 0.355
425 K, Closed cell (Static) method | – | 0.3873
427.02 K, Closed cell (Static) method | – | 0.4288
428.95 K, Closed cell (Static) method | – | 0.467
430.77 K, Closed cell (Static) method | – | 0.511
432.92 K, Closed cell (Static) method | – | 0.5574
434.9 K, Closed cell (Static) method | – | 0.604
436.86 K, Closed cell (Static) method | – | 0.6602
438.87 K, Closed cell (Static) method | – | 0.7204
440.85 K, Closed cell (Static) method | – | 0.7844

Conditions | Normal melting temperature [°C]
Crystal, DTA | 83.01

Conditions | Molar enthalpy of transition or fusion [kcal/mol]
[1] | 4.21
